Experiments:
[1] = tested on: Head and Neck Cancer tumor cells; experiment: In vivo testing of the cisplatin formulation for head and neck cancer with radiotherapy; conditions: nude mice, treatment 20 days after cell injection, 8 Gy irradiation at day 21 and 24, terminated day 50
Method: In this study, 3 experimental groups were used, 6 nude mice per group. All mice were injected with 600000 tumor cells. […] Cisplatin solutions were injected IP for 4 consecutive weeks, a total of 4 administrations. The animals were irradiated with 8 Gy at day 21 and day 24. The experiment was terminated at day 50.

[2] = rat, in vivo, iv, 5 mg/kg
Method: Polymer-cisplatin was injected subcutaneously to mice at the amount 10, 20, 40 µL per mice that is 4, 8, 16 mg cisplatin/Kg. As controls, 50µL of the drug free polymer was injected and 200 µL IV injection at a dose of 5 mg/kg. The mice were observed daily for morbidity and mortality, and daily for general clinical signs (cage side observation): changes in the skin, fur, eyes, nose, mouth, head, respiration, urine, feces, locomotor, and overall wellness.
An animal showing one of the humane endpoints according to Clinical Signs″, SOP-06-019, were euthanized and subjected to the termination procedure. Blood collection for cisplatin content was at 0(baseline), 1 h, 4 h, 8 h, 24 h,48 h,96 h, 168 h, thereafter once weekly until week 4. Blood for CBC and Biochemistry was at: 0(Baseline), 24 h, 72 h, 168 h thereafter once weekly until sacrifice. For the IV injected mice, plasma was collected at 0(baseline), 5 m, 15 m, 30 m, 1 h, 2 h, 4 h, 8 h, 24 h, 48 h, 72 h, and 96 h. Whole blood and Blood Biochemistry was at 0(Baseline), 24h and 96h. Whole blood was collected from each animal and treated according to common procedures. Urine collection amount was recorded at 0-6, 12-24, 48-72h, 72-96h, 96-120h and once weekly thereafter.

## [NH2][Pt]([NH2])([Cl])[Cl] [cisplatin solution, Cisplatin]
[1]
  effect on the tumor (tumor size): did not show any effect on the tumor
[2]
  blood count (HGB, RBG & HCT): drastic drop in markers
  body weight: lower body weight
  kidneys performance (creatinine and urea excretion): deteriorated kidneys performance
  side effects, behaviour after injection: severe side effects

Source: patent publication US20230285337A1, “LONG ACTING ANTICANCER COMPOSITIONS” (INTRAGEL THERAPEUTICS LTD., priority 2020, published 2023)
